Consider 17 compounds from US20070092551A1, “Therapeutic agent” (TAKARA BIO INC., priority 2003, published 2007).

For the test, the system named is mature adipocytes (3T3-L1 cells). As to the kind of experiment: Enhancing action on glucose uptake (2-deoxyglucose) into mature adipocytes. To be noted: Mus musculus. Type of test: cell-based. The method, then: The induction of differentation into nature adipocytes was carried out by partially modifying the above-mentioned method of Rubin C. S. et al. 3T3-L1 cells (ATCC CCL-92.1) were suspended in a 10% fetal bovine serum (manufactured by Bio Whittaker)-containing Dulbecco's modified Eagle's medium (manufactured by Sigma, D6046) containing 200 μM ascorbic acid so as to have a density of 4×10^3 cells/mL, and the suspension was put in each well of a collagen type I-coated 12-well plate (Iwaki Glass Co., Ltd., code 4815-010) in an amount of 2 mL per well. The cells were cultured at 37° C. for 7 days in the presence of 5% carbon dioxide gas. On the seventh day, the medium was exchanged with 2 mL of a 10% fetal bovine serum (manufactured by Bio Whittaker)-containing Dulbecco's modified Eagle's medium containing 200 μM ascorbic acid, 0.25 μM dexamethasone, 10 μg/mL insulin (manufactured by TAKARA BIO INC.) and 0.5 mM 3-isobutyl-1-methylxanthine (manufactured by nacalai tesque, 19624-86). After 45 hours, the medium was exchanged with 2 mL of a 10% fetal bovine serum-containing Dulbecco's modified Eagle's medium containing 200 μM ascorbic acid and 5 μg/mL insulin. The medium was exchanged on after 2 days and 5 days, and the cells were cultured for 7 days, to give mature adipocytes.
As the evaluation of the enhancing action on glucose uptake, and also as the evaluation of the insulin-mimetic action, the amount of 2-deoxyglucose uptake into mature adipocytes during the stimulation of the test compound in the adipocytes was determined. As a test compound, a compound prepared in the Examples mentioned above or a commercially available compound was used.
After the termination of the culture, the medium was removed, and the cells were washed twice with a 0.1% (w/v) bovine serum albumin (manufactured by Sigma, A8022)-containing Dulbecco's modified Eagle's medium. Thereafter, 1 mL of the same medium containing a test compound in a concentration shown in each of Tables 20 to 23 was put to each well. The cells were cultured overnight at 37° C. in the presence of 5% carbon dioxide gas. Here, a group without containing the test compound was set as a negative control. After the overnight culture, the cells were washed twice with a HEPES buffer (140 mM NaCl, 5 mM KCl, 2.5 mM MgSO4, 1 mM CaCl2, 20 mM HEPES-Na (pH 7.4)). The amount 0.9 mL of the buffer containing a test compound in the same concentration was added to each well. The cells were cultured at 37° C. for 75 minutes. During the culture, as a positive control, there was set a group with addition of insulin to the well without addition of a test compound at a point 45 minutes passed so as to have a final concentration of 1 μg/mL. Thereafter, 100 μL of a HEPES buffer containing 0.5 μCi/mL 2-deoxy-[1,2-^3H(N)]-glucose (manufactured by PerkinElmer Life Sciences Inc., NET549A) and 1 mM 2-deoxyglucose (manufactured by nacalai tesque, 10722-11) was added thereto. The cells were cultured at 37° C. for additional 10 minutes. After the termination of the culture, the supernatant was removed, and the cells were washed three times with a phosphate buffer cooled to 4° C. Thereafter, 0.5 mL of a 1% Nonidet P-40-containing phosphate buffer was added to lyse the cells, whereby 2-deoxy-[1,2-^3H(N)]-glucose subjected to uptake into the cells was eluted. The radioactivity was determined with a liquid scintillation counter LS6500 (manufactured by Beckmann) using 25 μL of the supernatant with Ultima Gold (manufactured by PerkinElmer Life Sciences Inc., 6013329) as a scintillation cocktail. The enhancing action on glucose uptake was calculated by the following calculation formula, and shown by four ranks of +++, ++, + and +/−. • S: Amount of 2-deoxyglucose uptake in the presence of a test compound; • N: Amount of 2-deoxyglucose uptake in the negative control; and • P: Amount of 2-deoxyglucose uptake in the positive control; X=(S−N)/(P−N) (Judgment of Enhancing Action for 2-Deoxyglucose Uptake)

Setting [1] is: 3T3-L1, 10 μM, X=(S−N)/(P−N) of 2-deoxyglucose uptake, P=insulin 1 μg/mL, read-out: Enhancing Action on Glucose Uptake.
Where [2] appears, read: 3T3-L1, 30 μM, X=(S−N)/(P−N) of 2-deoxyglucose uptake, P=insulin 1 μg/mL, read-out: Enhancing Action on Glucose Uptake.
The mark [3] stands for this setting: 3T3-L1, 3 μM, X=(S−N)/(P−N) of 2-deoxyglucose uptake, P=insulin 1 μg/mL, read-out: Enhancing Action on Glucose Uptake.
The mark [4] stands for this setting: 3T3-L1, read-out: Enhancing Action on Glucose Uptake.

Read-outs that look alike come from different tables or passages of the source.

For `CC(C)=CCCC1(C)C=Cc2c(ccc(C(=O)/C=C/c3ccc(O)cc3)c2O)O1` (centres unmarked) [Lespeol], the activation at 10 µM under setting [1] lay within 60 to 100%. Besides, the activation at 30 µM under setting [2] lay in the range of 60 to 100%.

On to `COc1ccc(C(=O)/C=C/C=C/c2ccccc2)c(O)c1CC=C(C)C` [Compound (C-CIN), 1-(2-hydroxy-4-methoxy-3-prenylphenyl)-5-phenyl-2,4-pentadien-1-one], for which the activation at 3 µM under setting [3] lay in the range of 15 to 30%. Moreover, under setting [1], the activation at 10 µM lay within 15 to 30%. Further, the activation at 30 µM under setting [2] was above 100%.

Regarding `COc1ccc(C=O)c(O)c1` [2-Hydroxy-4-methoxybenzaldehyde], the activation at 10 µM under setting [1] lay in the range of 15 to 30%. Moreover, the activation at 30 µM under setting [2] lay in the range of 30 to 60%.

`CC(=O)c1cc(CC=C(C)C)c(O)cc1O` [Compound (C025), 2′,4′-dihydroxy-5′-prenylacetophenone]: under setting [1], the activation at 10 µM was 15 to 30%. The activation at 30 µM under setting [2] fell in the range of 30 to 60%.

`CC(=O)c1ccc(OC2CCCCO2)c(C/C=C(\C)CCC=C(C)C)c1O` (centres unmarked) [Compound (C045), 2′-hydroxy-3′-geranyl-4′-tetrahydropyranyloxyacetophenone]: the activation at 10 µM under setting [1] fell in the range of 15 to 30%. Besides, under setting [2], the activation at 30 µM fell in the range of 30 to 60%.

Regarding `CC(C)=CCC/C(C)=C/CC/C(C)=C/Cc1c(O)ccc(C(=O)/C=C/c2ccc(O)cc2)c1O` [Compound (C058), 4,2′,4′-trihydroxy-3′-farnesylchalcone], the activation at 30 µM under setting [2] is above 100%.

With `C/C=C(/C)C(=O)OC1C(O)c2c(ccc3ccc(=O)oc23)OC1(C)C` (centres unmarked) [Coumarin Compound C, 3′-angeloyloxy-4′-hydroxy-3′,4′-dihydroseselin], the activation at 30 µM under setting [2] was in the range of 30 to 60%.

In the case of `COc1ccc(C(=O)/C=C/c2ccc(O)cc2)c(O)c1C/C=C(\C)CC/C=C(\C)CCC=C(C)C` [Compound (C053), 4,2′-dihydroxy-3′-farnesyl-4′-methoxychalcone], the activation at 3 µM under setting [3] was in the range of 30 to 60%. Further, under setting [1], the activation at 10 µM is above 100%. Under setting [2], the activation at 30 µM was above 100%.

In the case of `C/C=C(/C)C(=O)OC1c2c(ccc3ccc(=O)oc23)OC(C)(C)C1OC(C)=O` (centres unmarked) [Coumarin Compound A, 3′-acetoxy-4′-angeloyloxy-3′,4′-dihydroseselin], the activation at 10 µM under setting [1] is above 100%. For the same compound, the activation at 30 µM under setting [2] is above 100%.

Regarding `COc1ccc(C(=O)/C=C/c2ccc(O)cc2)c(O)c1CC1C2(C)CCC(O2)C1(C)C` (centres unmarked) [TB7, 1-[3-(2,5-epoxy-2,6,6-trimethyl-cyclohexylmethyl)-2-hydroxy-4-methoxyphenyl]-3-(4-hydroxyphenyl)-2-propen-1-one], the activation at 10 µM under setting [1] was above 100%. Also, the activation at 30 µM under setting [2] is above 100%.

Turning to `O=C(/C=C/c1ccc(O)c(O)c1)c1ccc(Cl)cc1Cl` [Compound (C011), 3,4-dihydroxy-2′,4′-dichlorochalcone], the activation at 3 µM under setting [3] was 15 to 30%. In addition, the activation at 10 µM under setting [1] was in the range of 60 to 100%. Further, the activation at 30 µM under setting [2] is above 100%.

For `CCOc1ccc(C(=O)/C=C/c2ccc(O)cc2)c(O)c1C/C=C(\C)CCC=C(C)C` [Compound (C050), 4,2′-dihydroxy-3′-geranyl-4′-ethoxychalcone], the activation at 3 µM under setting [3] lay within 15 to 30%. Moreover, the activation at 10 µM under setting [1] is above 100%.

As for `CCC/C=C1\OC(=O)c2ccccc21` [n-Butylidenephthalide], under setting [4], the activation at 3 µM was in the range of 30 to 60%, the activation at 10 µM is 60 to 100% and the activation at 30 µM was above 100%.

As to `O=C(/C=C/c1ccc(O)c(O)c1)c1cc(O)ccc1O` [Compound (C006), 3,4,2′,5′-tetrahydroxychalcone], the activation at 10 µM under setting [1] was in the range of 30 to 60%.

Consider `C/C=C(/C)C(=O)OC1Cc2c(ccc3ccc(=O)oc23)OC1(C)C` (centres unmarked) [Coumarin Compound B, 3′-angeloyloxy-3′,4′-dihydroseselin], for which the activation at 10 µM under setting [1] is above 100%. Further, under setting [2], the activation at 30 µM is above 100%.

Regarding `CCCCC1OC(=O)C2=CCCCC21` (centres unmarked) [Sedanolide], the activation at 10 µM under setting [1] fell in the range of 15 to 30%. The activation at 30 µM under setting [2] lay in the range of 60 to 100%.

With `O=C(/C=C/c1ccccc1)c1ccccc1` [Chalcone], under setting [1], the activation at 10 µM lay within 30 to 60%. For the same compound, under setting [2], the activation at 30 µM is 30 to 60%.
